Read-outs that look alike come from different tables or passages of the source.
Assays:
Tpa1p = molecular target: T1, Tpa1p (Saccharomyces cerevisiae, UniProt P40032); experiment: MALDI-TOF MS Tpa1p hydroxylation assay; format: biochemical
T1 construct: His6 (N); made in house; host or cells: E. coli BL21(DE3)
Protocol: MALDI-TOF MS OFD1/TPA1p hydroxylation assays13
For enzyme production, the reported procedures were used.13 E. coli BL21(DE3) cells transformed with pNIC28-His6-Ofd1 or pNIC28-His6-Tpa1pΔ2-20 were cultured to an OD600 of 0.6; recombinant protein production was induced through the addition of isopropyl β-D-1-thiogalactopyranoside (IPTG) to a concentration of 0.5 mM. The induced cultures were […]
incubated overnight at 18°C with shaking, then harvested. The induced cells were suspended in 500 mM NaCl, 40 mM imidazole, 50 mM HEPES pH 7.5, sonicated, and the His-tagged protein was purified by nickel affinity chromatography.13 Both Ofd1 and Tpa1p were buffer-exchanged into 500 mM NaCl, 5% glycerol, 1 mM DTT, 50 mM HEPES pH 7.5 following […]
consisted of Ofd1 (1 µM) or Tpa1p (2 µM) with 2OG (20 µM), L-ascorbic acid (100 µM), (NH4)2Fe(SO4)2 (50 µM), RPS23 peptide (amino acid sequence
-CONH2; 25 µM) and the […]
relevant inhibitor (initially prepared in 10% DMSO, diluted to 1% DMSO in the reaction mixture) all in 50 mM HEPES pH 7.5. Reactions were quenched after 2 min (Ofd1) or 4 min (Tpa1p) by the addition of formic acid to a final concentration of 1%. The extent of hydroxylation was monitored by MALDI-TOF MS, and the IC50 curve was fit to the data using […]
LC-MS PHD2 hydroxylation assays
The PHD2 RF-MS RapidFire liquid chromatography mass spectrometry (RF-MS) assay monitors turnover of a C-terminal oxygenase dependent domain (CODD) peptide substrate […]
-CONH2 and appearance of the hydroxylated peptide product
(Pro564) in an endpoint type assay format (typical enzyme incubation time of 15 minutes).
Tris(hydroxymethyl)aminomethane was from Fisher. Ferrous ammonium sulfate (FAS), 2-oxoglutarate (2OG) and L-ascorbic acid were from Sigma Aldrich; solutions of these were prepared freshly each day. All inhibition assays were carried out in 384-well polypropylene plates (Greiner Bio-One). PHD2 assays were performed in assay buffer (50 mM Tris.Cl pH […]
were prepared using an ECHO 550 acoustic dispenser (Labcyte) and dry dispensed into 384-well polypropylene assay plates. The final assay concentration of DMSO was kept constant at 0.5%. PHD2 protein was prepared at a concentration of 300 nM in assay buffer and 25 μl dispensed across each 384-well assay plate. […] Peptide charge states were monitored in positive mode. Ion chromatogram data were extracted for the +2 charge state and peak area data integrated using RapidFire Integrator software (Agilent). % conversion of the CODD peptide substrate to the +16 hydroxylated peptide was calculated using the equation: % conversion = 100 x hydroxylated / (hydroxylated + non-hydroxylated peptide). IC50 values were determined from non-linear regression plots using GraphPad prism. […]

FIH = FIH (Homo sapiens, UniProt Q9NWT6); experiment: LC-MS (RapidFire) FIH hydroxylation assay; format: biochemical
[1] = molecular target: PHD2 catalytic domain (residues 181-426) (Homo sapiens, UniProt Q9GZT9); experiment: 1H CPMG NMR screening of equimolar enzyme-inhibitor mixture; format: binding; design: The catalytic domain of human PHD2 (residues 181-426) was used in all; made in house; conditions: equimolar enzyme-inhibitor mixture (50 µM)
[2] = isolated recombinant enzyme, 2 µM, read-out: IC50 Tpa1p

T1 sequence (P40032 with tags, fused parts or gaps): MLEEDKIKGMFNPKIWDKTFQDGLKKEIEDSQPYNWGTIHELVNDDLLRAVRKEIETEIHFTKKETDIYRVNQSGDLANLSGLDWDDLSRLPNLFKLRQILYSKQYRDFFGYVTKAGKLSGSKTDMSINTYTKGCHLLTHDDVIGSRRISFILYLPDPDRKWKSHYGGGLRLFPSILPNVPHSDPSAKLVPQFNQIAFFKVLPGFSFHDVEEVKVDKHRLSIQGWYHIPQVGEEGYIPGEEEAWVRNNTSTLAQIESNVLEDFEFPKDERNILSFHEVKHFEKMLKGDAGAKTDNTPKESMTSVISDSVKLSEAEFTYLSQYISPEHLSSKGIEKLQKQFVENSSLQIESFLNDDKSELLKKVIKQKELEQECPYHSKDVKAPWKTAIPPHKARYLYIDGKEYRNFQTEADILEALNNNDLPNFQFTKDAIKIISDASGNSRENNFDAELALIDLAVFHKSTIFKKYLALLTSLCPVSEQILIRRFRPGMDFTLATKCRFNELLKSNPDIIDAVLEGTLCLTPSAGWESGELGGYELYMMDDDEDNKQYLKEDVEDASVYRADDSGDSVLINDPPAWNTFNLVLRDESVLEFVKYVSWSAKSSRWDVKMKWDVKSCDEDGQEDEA
FIH, sequence (Q9NWT6 whole entry, the tested form may be a part): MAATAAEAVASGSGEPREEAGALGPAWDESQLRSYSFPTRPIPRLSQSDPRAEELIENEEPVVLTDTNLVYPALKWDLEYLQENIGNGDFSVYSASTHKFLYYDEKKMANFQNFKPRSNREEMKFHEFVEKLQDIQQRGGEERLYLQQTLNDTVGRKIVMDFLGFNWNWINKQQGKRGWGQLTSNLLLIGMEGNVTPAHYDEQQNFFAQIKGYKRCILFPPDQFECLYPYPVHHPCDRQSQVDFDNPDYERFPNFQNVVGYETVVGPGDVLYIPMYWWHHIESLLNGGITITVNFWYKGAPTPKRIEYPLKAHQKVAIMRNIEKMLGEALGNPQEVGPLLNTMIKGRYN
PHD2 catalytic domain (residues 181-426), sequence (Q9GZT9 181-426): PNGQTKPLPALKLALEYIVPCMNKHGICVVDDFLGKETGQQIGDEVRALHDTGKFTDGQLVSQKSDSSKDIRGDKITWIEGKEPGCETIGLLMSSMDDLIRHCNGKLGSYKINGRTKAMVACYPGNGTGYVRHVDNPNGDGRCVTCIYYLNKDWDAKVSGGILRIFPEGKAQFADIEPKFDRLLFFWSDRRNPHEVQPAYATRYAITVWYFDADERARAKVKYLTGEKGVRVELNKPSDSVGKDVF

Cc1nc(C(=O)NCC(=O)O)c(O)c2ccc(Oc3ccccc3)cc12 [FG-4592]
IC50 (Tpa1p; [2]): 12.8 µM | IC50 (FIH): > 100 µM

O=c1c(-n2ccnn2)c[nH]n1-c1cc(N2CCOCC2)ncn1 [Molidustat]
IC50 (Tpa1p; [2]): 3.8 µM | IC50 for FIH relative to PHD2 (FIH; isolated protein assays, Table 1): > 100 fold | IC50 (FIH; isolated recombinant enzyme, read-out: IC50 FIH): 66 µM | binding by 1H CPMG NMR [1]: strong binding

O=C(O)CNC(=O)C1C(=O)N(C2CCCCC2)C(=O)N(C2CCCCC2)C1=O [GSK1278863]
IC50 (Tpa1p): 5.1 µM

CC(C)(C)OC(=O)c1ccc(-n2[nH]cc(-n3ccnn3)c2=O)nc1 [IOX4]
IC50 (Tpa1p): 2.3 µM | binding by 1H CPMG NMR [1]: strong binding

Reference: PMC5802278, “Molecular and cellular mechanisms of HIF prolyl hydroxylase inhibitors in clinical trials” (Chemical Science, 2017)
